According to paper PMC6321601 (Molecules, 2018):

Experiments:
[1] = tested on: L-O2 human normal liver cells; experiment: MTT assay, toxicity against L-O2 normal cells; format: cell-based; details: Homo sapiens, 72 h incubation, mean of three independent experiments
Procedure: (§1) HepG-2 human hepatocellular carcinoma cells and L-O2 human normal liver cells were maintained in DMEM culture medium supplemented with 10% FBS at 37 °C under a humidified atmosphere with 5% CO2.
(§2) HepG-2 and L-O2 cells in logarithmic growth phase were seeded into a 96-well plate at 5 × 10^3/well/200 µL. After 12 h, compounds at different concentrations were added and incubated for 72 h at 37 °C, 5% CO2. Then, 20 µL MTT (5 mg/mL) was added into each well and incubated for 4 h. The supernatant was discarded, and the precipitate was dissolved with DMSO. The absorbance of the optical density (OD) at 570 nm was detected using a microplate reader and the IC50 was calculated with GraphPad Prism 5.

[2] = tested on: HepG-2 human hepatocellular carcinoma cells; experiment: MTT assay, proliferation of HepG-2 cells; format: cell-based; details: Homo sapiens, HepG2, 72 h incubation, mean of three independent experiments
Procedure: as §1, §2

Row | Compound | IC50 [1] [µM] | IC50 [2] [µM]
1 | CC(=O)OC(C)(C)/C=C/C(=O)[C@](C)(O)C1[C@H](OC(=O)CCC(=O)N2CCN(CCOc3no[n+]([O-])c3S(=O)(=O)c3ccccc3)CC2)C[C@@]2(C)C3CC=C4C(CC(O)C(=O)C4(C)C)[C@]3(C)C(=O)C[C@]12C (stereo partly drawn) [Compound 9c, 4-(2-(4-(4-(((9R,13R,14S,16R)-17-((R,E)-6-Acetoxy-2-hydroxy-6-methyl-3-oxohept-4-en-2-yl)-2-hydroxy-4,4,9,13,14-pentamethyl-3,11-dioxo-2,3,4,7,8,9,10,11,12,13,14,15,16,17-tetradecahydro-1H-cyclopenta[a]phenanthren-16-yl)oxy)-4-oxobutanoyl)piperazin-1-yl)ethoxy)-3-(phenylsulfonyl)-1,2,5-oxadiazole 2-oxide] | 2.61 ± 1.77 | 0.92 ± 0.16
2 | CC(=O)OC(C)(C)/C=C/C(=O)[C@](C)(O)C1[C@H](OC(=O)CCC(=O)OCCOc2no[n+]([O-])c2S(=O)(=O)c2ccccc2)C[C@@]2(C)C3CC=C4C(CC(O)C(=O)C4(C)C)[C@]3(C)C(=O)C[C@]12C (stereo partly drawn) [Compound 10a, 4-(2-((4-(((9R,13R,14S,16R)-17-((R,E)-6-Acetoxy-2-hydroxy-6-methyl-3-oxohept-4-en-2-yl)-2-hydroxy-4,4,9,13,14-pentamethyl-3,11-dioxo-2,3,4,7,8,9,10,11,12,13,14,15,16,17-tetradecahydro-1H-cyclopenta[a]phenanthren-16-yl)oxy)-4-oxobutanoyl)oxy)ethoxy)-3-(phenylsulfonyl)-1,2,5-oxadiazole 2-oxide] | 2.04 ± 0.67 | 0.82 ± 0.33
3 | CC(=O)OC(C)(C)/C=C/C(=O)[C@](C)(O)C1[C@H](OC(=O)CCC(=O)OCCCCOc2no[n+]([O-])c2S(=O)(=O)c2ccccc2)C[C@@]2(C)C3CC=C4C(CC(O)C(=O)C4(C)C)[C@]3(C)C(=O)C[C@]12C (stereo partly drawn) [Compound 10c, 4-(4-((4-(((9R,13R,14S,16R)-17-((R,E)-6-Acetoxy-2-hydroxy-6-methyl-3-oxohept-4-en-2-yl)-2-hydroxy-4,4,9,13,14-pentamethyl-3,11-dioxo-2,3,4,7,8,9,10,11,12,13,14,15,16,17-tetradecahydro-1H-cyclopenta[a]phenanthren-16-yl)oxy)-4-oxobutanoyl)oxy)butoxy)-3-(phenylsulfonyl)-1,2,5-oxadiazole 2-oxide] | 2.1 ± 1.41 | 0.52 ± 0.09
4 | CC(=O)OC(C)(C)/C=C/C(=O)[C@](C)(O)C1[C@H](OC(=O)CCC(=O)OCCCCCOc2no[n+]([O-])c2S(=O)(=O)c2ccccc2)C[C@@]2(C)C3CC=C4C(CC(O)C(=O)C4(C)C)[C@]3(C)C(=O)C[C@]12C (stereo partly drawn) [Compound 10d, 4-((5-((4-(((9R,13R,14S,16R)-17-((R,E)-6-Acetoxy-2-hydroxy-6-methyl-3-oxohept-4-en-2-yl)-2-hydroxy-4,4,9,13,14-pentamethyl-3,11-dioxo-2,3,4,7,8,9,10,11,12,13,14,15,16,17-tetradecahydro-1H-cyclopenta[a]phenanthren-16-yl)oxy)-4-oxobutanoyl)oxy)pentyl)oxy)-3-(phenylsulfonyl)-1,2,5-oxadiazole 2-oxide] | 2.62 ± 0.52 | 0.64 ± 0.26
5 | CC(=O)OC(C)(C)/C=C/C(=O)[C@](C)(O)C1[C@H](OC(=O)CCC(=O)OCCCCCCOc2no[n+]([O-])c2S(=O)(=O)c2ccccc2)C[C@@]2(C)C3CC=C4C(CC(O)C(=O)C4(C)C)[C@]3(C)C(=O)C[C@]12C (stereo partly drawn) [Compound 10e, 4-((6-((4-(((9R,13R,14S,16R)-17-((R,E)-6-Acetoxy-2-hydroxy-6-methyl-3-oxohept-4-en-2-yl)-2-hydroxy-4,4,9,13,14-pentamethyl-3,11-dioxo-2,3,4,7,8,9,10,11,12,13,14,15,16,17-tetradecahydro-1H-cyclopenta[a]phenanthren-16-yl)oxy)-4-oxobutanoyl)oxy)hexyl)oxy)-3-(phenylsulfonyl)-1,2,5-oxadiazole 2-oxide] | 3.21 ± 0.09 | 1.15 ± 0.24
6 | CC(=O)OC(C)(C)/C=C/C(=O)[C@](C)(O)C1[C@H](OC(=O)CCC(=O)OCCCCCCCOc2no[n+]([O-])c2S(=O)(=O)c2ccccc2)C[C@@]2(C)C3CC=C4C(CC(O)C(=O)C4(C)C)[C@]3(C)C(=O)C[C@]12C (stereo partly drawn) [Compound 10f, 4-((7-((4-(((9R,13R,14S,16R)-17-((R,E)-6-Acetoxy-2-hydroxy-6-methyl-3-oxohept-4-en-2-yl)-2-hydroxy-4,4,9,13,14-pentamethyl-3,11-dioxo-2,3,4,7,8,9,10,11,12,13,14,15,16,17-tetradecahydro-1H-cyclopenta[a]phenanthren-16-yl)oxy)-4-oxobutanoyl)oxy)heptyl)oxy)-3-(phenylsulfonyl)-1,2,5-oxadiazole 2-oxide] | 3.25 ± 0.4 | 0.83 ± 0.38
7 | CC(=O)OC(C)(C)/C=C/C(=O)[C@](C)(O)C1[C@H](OC(=O)CCC(=O)OCCCCCCCCOc2no[n+]([O-])c2S(=O)(=O)c2ccccc2)C[C@@]2(C)C3CC=C4C(CC(O)C(=O)C4(C)C)[C@]3(C)C(=O)C[C@]12C (stereo partly drawn) [Compound 10g, 4-((8-((4-(((9R,13R,14S,16R)-17-((R,E)-6-Acetoxy-2-hydroxy-6-methyl-3-oxohept-4-en-2-yl)-2-hydroxy-4,4,9,13,14-pentamethyl-3,11-dioxo-2,3,4,7,8,9,10,11,12,13,14,15,16,17-tetradecahydro-1H-cyclopenta[a]phenanthren-16-yl)oxy)-4-oxobutanoyl)oxy)octyl)oxy)-3-(phenylsulfonyl)-1,2,5-oxadiazole 2-oxide] | 4.29 ± 0.66 | 1.19 ± 0.55
8 | CC(=O)OC(C)(C)/C=C/C(=O)[C@](C)(O)C1[C@H](OC(=O)CCC(=O)OCCCCCCCCCOc2no[n+]([O-])c2S(=O)(=O)c2ccccc2)C[C@@]2(C)C3CC=C4C(CC(O)C(=O)C4(C)C)[C@]3(C)C(=O)C[C@]12C (stereo partly drawn) [Compound 10h, 4-((9-((4-(((9R,13R,14S,16R)-17-((R,E)-6-Acetoxy-2-hydroxy-6-methyl-3-oxohept-4-en-2-yl)-2-hydroxy-4,4,9,13,14-pentamethyl-3,11-dioxo-2,3,4,7,8,9,10,11,12,13,14,15,16,17-tetradecahydro-1H-cyclopenta[a]phenanthren-16-yl)oxy)-4-oxobutanoyl)oxy)nonyl)oxy)-3-(phenylsulfonyl)-1,2,5-oxadiazole 2-oxide] | 1.17 ± 0.08 | 1.15 ± 0.24
9 | CC(=O)OC(C)(C)/C=C/C(=O)[C@](C)(O)C1[C@H](OC(=O)CCC(=O)OCCCCCCCCCCOc2no[n+]([O-])c2S(=O)(=O)c2ccccc2)C[C@@]2(C)C3CC=C4C(CC(O)C(=O)C4(C)C)[C@]3(C)C(=O)C[C@]12C (stereo partly drawn) [Compound 10i, 4-((10-((4-(((9R,13R,14S,16R)-17-((R,E)-6-Acetoxy-2-hydroxy-6-methyl-3-oxohept-4-en-2-yl)-2-hydroxy-4,4,9,13,14-pentamethyl-3,11-dioxo-2,3,4,7,8,9,10,11,12,13,14,15,16,17-tetradecahydro-1H-cyclopenta[a]phenanthren-16-yl)oxy)-4-oxobutanoyl)oxy)decyl)oxy)-3-(phenylsulfonyl)-1,2,5-oxadiazole 2-oxide] | 3.27 ± 0.43 | 6.92 ± 0.75
10 | CC(=O)OC(C)(C)/C=C/C(=O)[C@](C)(O)C1[C@H](OC(=O)CCC(=O)OCCCCCCCCCCCOc2no[n+]([O-])c2S(=O)(=O)c2ccccc2)C[C@@]2(C)C3CC=C4C(CC(O)C(=O)C4(C)C)[C@]3(C)C(=O)C[C@]12C (stereo partly drawn) [Compound 10j, 4-((11-((4-(((9R,13R,14S,16R)-17-((R,E)-6-Acetoxy-2-hydroxy-6-methyl-3-oxohept-4-en-2-yl)-2-hydroxy-4,4,9,13,14-pentamethyl-3,11-dioxo-2,3,4,7,8,9,10,11,12,13,14,15,16,17-tetradecahydro-1H-cyclopenta[a]phenanthren-16-yl)oxy)-4-oxobutanoyl)oxy)undecyl)oxy)-3-(phenylsulfonyl)-1,2,5-oxadiazole 2-oxide] | 6.69 ± 3.95 | 10.3 ± 1.11
11 | CC(=O)OC(C)(C)/C=C/C(=O)[C@](C)(O)C1[C@H](OC(=O)CCC(=O)OCCCCCCCCCCCCOc2no[n+]([O-])c2S(=O)(=O)c2ccccc2)C[C@@]2(C)C3CC=C4C(CC(O)C(=O)C4(C)C)[C@]3(C)C(=O)C[C@]12C (stereo partly drawn) [Compound 10k, 4-((12-((4-(((9R,13R,14S,16R)-17-((R,E)-6-Acetoxy-2-hydroxy-6-methyl-3-oxohept-4-en-2-yl)-2-hydroxy-4,4,9,13,14-pentamethyl-3,11-dioxo-2,3,4,7,8,9,10,11,12,13,14,15,16,17-tetradecahydro-1H-cyclopenta[a]phenanthren-16-yl)oxy)-4-oxobutanoyl)oxy)dodecyl)oxy)-3-(phenylsulfonyl)-1,2,5-oxadiazole 2-oxide] | > 20 | > 20
12 | CC(=O)OC(C)(C)/C=C/C(=O)[C@](C)(O)C1[C@H](OC(=O)CCC(=O)OC/C=C/COc2no[n+]([O-])c2S(=O)(=O)c2ccccc2)C[C@@]2(C)C3CC=C4C(CC(O)C(=O)C4(C)C)[C@]3(C)C(=O)C[C@]12C (stereo partly drawn) [Compound 10l, 4-(((E)-4-((4-(((9R,13R,14S,16R)-17-((R,E)-6-Acetoxy-2-hydroxy-6-methyl-3-oxohept-4-en-2-yl)-2-hydroxy-4,4,9,13,14-pentamethyl-3,11-dioxo-2,3,4,7,8,9,10,11,12,13,14,15,16,17-tetradecahydro-1H-cyclopenta[a]phenanthren-16-yl)oxy)-4-oxobutanoyl)oxy)but-2-en-1-yl)oxy)-3-(phenylsulfonyl)-1,2,5-oxadiazole 2-oxide] | 2.72 ± 0.38 | 1.01 ± 0.4
